Test results published in patent US8273769B2, “Phenoxy acetic acid derivatives” (Merck Serono SA, priority 2009, dated 2012).

How the values were obtained:
[1] = In vivo pharmacokinetic evaluation in mouse; parameters: species or system C57BL/6 female mice; conditions: mice; for clearance / AUC / bioavailability: female, C57BL/6, mouse, plasma; for clearance: iv, i.v. 1 mg/Kg; for AUC po (5 mg/Kg) / AUC: oral gavage 5 mg/Kg; for bioavailability: po, 5 mg/kg
Description: In order to study the pharmacokinetic (PK) profile of test compounds in vivo, Sprague Dawley male rats or C57BL/6 female mice were dosed intravenously or after oral gavage. For both species, test compounds were dosed in solution at 1 mg/kg for i.v. route (10% ethanol, 10% N,N-dimethylacetamide, 30% propylene glycol, 50% water, v/v) and in suspension at 5 mg/kg (0.5% carboxymethylcellulose suspension, containing 0.25% Tween 20 in water) for oral gavage. PK profile in rat was obtained from 3 animals per dosing route and mouse PK profile was determined from 3 animals for each time points. The volume of administration was 2 mL/kg for i.v. dosing in both species and either 5 mL/kg (rat) or 10 mL/kg (mouse) for oral gavage. Blood samples (100 μL/time point) were collected at 0.083 (5 min), 0.25, 0.5, 1, 4, 7 and 24 hours post-dose for i.v. dosing, and at 0.5, 1, 4, 7 and 24 h for oral dosing, into heparin-Li+ containing tubes. For rats, all blood samples were collected trough a catheter in the carotid artery (placed in the artery the day before the experiment), under light isoflurane anesthesia, and stored on ice until centrifugation and plasma isolation. For mouse, blood samples were collected from intracardiac puncture at sacrifice at each time point and processed as described above for the rat. Plasma samples were stored frozen until analysis (−20° C. to −70° C.). For bioanalysis, samples were processed by protein precipitation (acetonitrile, formic acid 0.1%, addition of 3 volumes) after addition of one internal standard and analysed using a sensitive and selective LC/MS/MS method. An aliquot of the resulting supernatant was subject to LC/MS/MS analysis using a reverse phase column (Waters Xterra, C8, (3.5 μm particle size, 2.1×50 mm) and a short gradient (1 min) from (Solvent A) 85% water, 15% acetonitrile and 0.1% formic acid to (Solvent B) 90% acetonitrile, 10% water and 0.1% formic acid followed by isocratic conditions of Solvent B for 3.5 min at 0.4 mL/min. Column effluent was monitored using a Sciex API 4000 triple quadrupole mass spectrometer with a Turbo V electrospray ion source. Unknown concentrations of test compounds were determined using a calibration curve ranging from 1 to 3000 ng/mL.

[2] = target: T1, CRTH2 (Homo sapiens, UniProt Q9Y5Y4); assay: Cellular Dielectric Spectroscopy (CHO-CRTH2 cells); assay type: cell-based; parameters: expressed in transfected cells; host or cells: CHO-CRTH2 cells; conditions: antagonist mode, fixed concentration of PGD2 (EC80)
T1 sequence (Q9Y5Y4 1-395): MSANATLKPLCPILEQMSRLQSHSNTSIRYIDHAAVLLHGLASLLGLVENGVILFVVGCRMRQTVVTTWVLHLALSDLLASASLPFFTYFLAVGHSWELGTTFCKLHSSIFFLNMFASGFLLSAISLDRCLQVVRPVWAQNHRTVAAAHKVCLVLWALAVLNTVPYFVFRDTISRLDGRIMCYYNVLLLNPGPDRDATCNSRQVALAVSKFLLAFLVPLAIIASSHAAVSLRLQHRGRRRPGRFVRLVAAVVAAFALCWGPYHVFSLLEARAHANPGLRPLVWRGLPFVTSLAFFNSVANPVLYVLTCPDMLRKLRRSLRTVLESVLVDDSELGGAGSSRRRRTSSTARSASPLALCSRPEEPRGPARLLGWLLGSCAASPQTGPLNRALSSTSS
In short: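 Label-free cellular dielectric spectroscopy measured impedance changes (dZ) in CHO-CRTH2 cells. The cells were grown in HAM's F12 with 10% foetal calf serum and 400 μg/ml Geneticin, plated at 100000 cells/well in 96W electrode microplates, and kept 24 hours at 37° C. in 5% CO2. They were then washed twice with 135 μl of HBSS/10 mM HEPES pH 7.4/1% DMSO buffer. Signal was the max-min amplitude, with basal and maximum activity defined without and with PGD2 (EC80).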

[3] = test system: eosinophils in human whole blood; assay: PGD2-induced eosinophil cell shape assay in human whole blood; assay type: cell-based; conditions: 10 nM PGD2 final, flow cytometry
Description: The Compounds of Formula (I) were diluted in dimethylsulphoxide so that the total volume of dimethylsulfoxide was kept constant at 2% dimethylsulphoxide (Me2SO). Serial dilutions of 200 μM to 0.09 μM were prepared. Samples of 90 μl of human blood from healthy volunteers (Centre de Transfusion Sanguine de Genève) were pre-incubated in polypropylene Falcon tubes (BD 352063) for 20 minutes in a water bath at 37° C. with 10 μl of diluted compounds. For CRTH2 activation, 100 μl PGD2 (Cayman 12010) at 20 nM was added (10 nM final) to each tube and cells were maintained at 37° C. For negative control cells were treated with PBS. After 10 minutes, cell activation was stopped with 120 μl Formaldehyde 10% (4% final, Fluka 41650) and cells were rested for 10 minutes at room temperature. Fixed cells were transferred into polypropylene tubes and then treated for 1 hour in a water bath at 37° C. with 2 ml of Triton-Surfact-Amps X-100 (Pierce 28314) at 0.166% (0.13% Triton final). After several washes with PBS (red cells lysed progressively during washes, two washes are necessary), cells were analyzed by flow cytometry on a FACSCalibur. In one embodiment, the compounds of Formula (I) of the present invention are capable of blocking the cell shape change of eosinophils induced by PGD2 in Whole Blood.

| clearance [1] [mL/min/kg] | Oral bioavailability [1] [%] | AUC po (5 mg/Kg) [1] [ng·h/mL] | IC50 [2] [nM] | IC50 [3] [nM] | AUC [1] [ng·h/mL] | bioavailability [1] [%] | Compound |
| --- | --- | --- | --- | --- | --- | --- | --- |
| 5 | 37 | 5768 | 22 | 150 |  |  | CCCS(=O)(=O)c1cccc(C#Cc2cc(Cl)ccc2OCC(=O)O)c1 [Example 17, (4-chloro-2-{[3-(propylsulfonyl)phenyl]ethynyl}phenoxy)acetic acid] |
| 1.67 | 57 | 30942 |  |  |  |  | O=C(O)COc1ccc(Cl)cc1C#Cc1ccc2c(c1)S(=O)(=O)c1ccccc1-2 [Example 154, {4-chloro-2-[(5,5-dioxidodibenzo[b,d]thien-3-yl)ethynyl]phenoxy}acetic acid] |
| 6.67 | 63 |  | 29 | 23 | 6750 |  | CCCS(=O)(=O)c1ccc(F)c(C#Cc2cc(Cl)ccc2OCC(=O)O)c1 [Example 89, (4-chloro-2-{[2-fluoro-5-(propylsulfonyl)phenyl]ethynyl}phenoxy)acetic acid] |
| 5.83 |  | 18691 | 16 | 91 |  | 130 | CC(C)S(=O)(=O)c1ccc(F)c(C#Cc2cc(Cl)ccc2OCC(=O)O)c1 [Example 102, (4-chloro-2-{[2-fluoro-5-(isopropylsulfonyl)phenyl]ethynyl}phenoxy)acetic acid] |
| 13.3 | 95 |  | 23 | 289 | 6210 |  | CN(C)S(=O)(=O)c1cncc(C#Cc2cc(Cl)ccc2OCC(=O)O)c1 [Example 35, [4-chloro-2-({5-[(dimethylamino)sulfonyl]pyridin-3-yl}ethynyl)phenoxy]acetic acid] |
| 16.7 |  | 3685 | 32 | 81 |  | 80 | CCCS(=O)(=O)c1ccc(C)c(C#Cc2cc(Cl)ccc2OCC(=O)O)c1 [Example 38, (4-chloro-2-{[2-methyl-5-(propylsulfonyl)phenyl]ethynyl}phenoxy)acetic acid] |
| 16.7 |  | 5795 | 38 | 23 |  | 110 | CCCS(=O)(=O)c1ccc(Cl)c(C#Cc2cc(Cl)ccc2OCC(=O)O)c1 [Example 101, (4-chloro-2-{[2-chloro-5-(propylsulfonyl)phenyl]ethynyl}phenoxy)acetic acid] |
| 11.7 | 64 | 4889 | 44 | 67 |  |  | CC(C)S(=O)(=O)c1ccc(Cl)c(C#Cc2cc(Cl)ccc2OCC(=O)O)c1 [Example 103, (4-chloro-2-{[2-chloro-5-(isopropylsulfonyl)phenyl]ethynyl}phenoxy)acetic acid] |
| 10 | 58 | 4880 | 23 | 23 |  |  | CN(C)S(=O)(=O)c1ccc(F)c(C#Cc2cc(Cl)ccc2OCC(=O)O)c1 [Example 107, [4-chloro-2-({5-[(dimethylamino)sulfonyl]-2-fluorophenyl}ethynyl)phenoxy]acetic acid] |
